Measured values from ChEMBL document CHEMBL3853341, “Nuclear magnetic resonance studies reveal stabilization of parallel G-quadruplex DNA [d(T2G4T)]4 upon binding to protoberberine alkaloid coralyne” (Bioorg Med Chem Lett, 2016).
Active and inactive are the calls of the source. The rule behind the calls is not given here.

What was measured:
[1] = Binding affinity to [d(T2AG3T)]4 G-quadruplex DNA (unknown origin) containing human telomeric repeat assessed as increase in melting temperature by NMR spectroscopic analysis
[2] = Binding affinity to [d(T2G4T)]4 G-quadruplex DNA (unknown origin) assessed as broadening of G4NH signal by measuring upfield shift at ligand:DNA molar ratio of 2 by 1D 1H NMR method
[3] = Binding affinity to [d(T2G4T)]4 G-quadruplex DNA (unknown origin) assessed as formation of 3'-flanking guanine at ligand:DNA molar ratio of 2 by 2D 1H-1H NOESY NMR spectroscopy
[4] = Binding affinity to [d(T2G4T)]4 G-quadruplex DNA (unknown origin) assessed as diffusion coefficient of H1/H16 proton signal at ligand:DNA molar ratio of 2 by NMR DOSY method (reference value: 5.08 10^-10m2/sec)
[5] = Binding affinity to [d(T2G4T)]4 G-quadruplex DNA (unknown origin) assessed as broadening of T7CH3 signal by measuring downfield shift at ligand:DNA molar ratio of 2 by 1D 1H NMR method
[6] = Binding affinity to [d(T2G4T)]4 G-quadruplex DNA (unknown origin) assessed as upfield shift in compound 15OCH3 signal at ligand:DNA molar ratio of 2 by 1D 1H NMR method
[7] = Binding affinity to [d(T2G4T)]4 G-quadruplex DNA (unknown origin) assessed as broadening of G5NH signal by measuring upfield shift at ligand:DNA molar ratio of 2 by 1D 1H NMR method
[8] = Binding affinity to [d(T2G4T)]4 G-quadruplex DNA (unknown origin) assessed as change in intensity of positive band at 264 nanometer by circular dichroism method
[9] = Binding affinity to [d(T2G4T)]4 G-quadruplex DNA (unknown origin) assessed as upfield shift in G5pG6 signal at ligand:DNA molar ratio of 0.25:1 to 2:1 by 1D 31P NMR method
[10] = Binding affinity to [d(T2G4T)]4 G-quadruplex DNA (unknown origin) assessed as upfield shift in compound 16OCH3 signal at ligand:DNA molar ratio of 2 by 1D 1H NMR method
[11] = Binding affinity to deoxy(T2G4T)]4 G-quadruplex DNA (unknown origin) assessed as formation of negative induced CD band at 25 uM by […]
[12] = Binding affinity to [d(T2G4T)]4 G-quadruplex DNA (unknown origin) assessed as diffusion coefficient of G3H8 proton signal at ligand:DNA molar ratio of 2 by NMR DOSY method
[13] = Binding affinity to [d(T2G4T)]4 G-quadruplex DNA (unknown origin) assessed as change in intensity of negative band at 242 nanometer by circular dichroism method
[14] = Binding affinity to [d(T2G4T)]4 G-quadruplex DNA (unknown origin) assessed as broadening of G6NH signal by measuring upfield shift at ligand:DNA molar ratio of 2 by 1D 1H NMR method
[15] = Binding affinity to [d(T2G4T)]4 G-quadruplex DNA (unknown origin) assessed as downfield shift in G6pT7 signal at ligand:DNA molar ratio of 0.25:1 to 2:1 by 1D 31P NMR method
[16] = Binding affinity to [d(T2G4T)]4 G-quadruplex DNA (unknown origin) assessed as broadening of T7H6 signal by measuring downfield shift at ligand:DNA molar ratio of 2 by 1D 1H NMR method
[17] = Binding affinity to [d(T2G4T)]4 G-quadruplex DNA (unknown origin) assessed as upfield shift in compound 1OCH3 signal at ligand:DNA molar ratio of 2 by 1D 1H NMR method
[18] = Binding affinity to [d(T2G4T)]4 G-quadruplex DNA (unknown origin) assessed as broadening of G3NH signal by measuring upfield shift at ligand:DNA molar ratio of 2 by 1D 1H NMR method
[19] = Binding affinity to [d(T2G4T)]4 G-quadruplex DNA (unknown origin) assessed as upfield shift in G4pG5 signal at ligand:DNA molar ratio of 0.25:1 to 2:1 by 1D 31P NMR method
[20] = Binding affinity to [d(T2G4T)]4 G-quadruplex DNA (unknown origin) assessed as upfield shift in compound 5OCH3 signal at ligand:DNA molar ratio of 2 by 1D 1H NMR method
[21] = Binding affinity to deoxy(T2G4T)]4 G-quadruplex DNA (unknown origin) assessed as G3NH/G6NH signal by measuring melting temperature by 1H NMR spectroscopy
[22] = Binding affinity to [d(T2G4T)]4 G-quadruplex DNA (unknown origin) assessed as downfield shift in T2pG3 signal at ligand:DNA molar ratio of 0.25:1 to 2:1 by 1D 31P NMR method
[23] = Binding affinity to [d(T2G4T)]4 G-quadruplex DNA (unknown origin) assessed as broadening of T2CH3 signal by measuring downfield shift at ligand:DNA molar ratio of 2 by 1D 1H NMR method

In the case of `O=c1c(O)c(-c2ccc(O)c(O)c2)oc2cc(O)cc(O)c12`, the ΔTm [1] is reported as 20 °C.

For `COc1cc2cc3c4cc(OC)c(OC)cc4cc[n+]3c(C)c2cc1OC`, the Activity [2] was 0.37 ppm, the Activity [3] was “Active” and the D [4] was 3.31 ×10⁻¹⁰ m2/s. It also gave an Activity [5] of 0.22 ppm, an Activity [6] of 0.46 ppm and an Activity [7] of 0.38 ppm. For the same compound, the Activity [8] was “Active”, the Activity [9] was 0.12 ppm and the Activity [10] was 0.61 ppm. For the same compound, the Activity [11] was “Active”, the D [12] was 3.26 ×10⁻¹⁰ m2/s and the Activity [13] was “Active”. It also gave an Activity [14] of 0.8 ppm, an Activity [15] of 0.27 ppm and an Activity [16] of 0.33 ppm. It also gave an Activity [17] of 0.49 ppm, an Activity [18] of 0.54 ppm and an Activity [19] of 0.12 ppm. The Activity [20] was 0.72 ppm, the ΔTm [21] was greater than 20 °C and the Activity [22] was 0.28 ppm. For the same compound, the Activity [23] was 0.17 ppm.

`Cc1cc2c3c([n+](C)c4ccc(F)cc4c3c1)-c1cc(F)ccc1N2C` showed a ΔTm [1] of 20 °C.
